# Laboratory results published in US20160200684A2, “Pharmaceutical Compositions for the Treatment of CFTR-Mediated Disorders” (Vertex Pharmaceuticals Incorporated, priority 2012, published 2016).
# Like-named read-outs stand apart in the source and are kept apart here.
# Tests used:
# Assay type in all cases: physicochemical
# [1] = Stability of Compound 2 aqueous suspension in 0.5% methylcellulose/0.5% polysorbate 80; conditions: for conversion of salt form in suspension vehicle: at T(0), XRPD, 1H NMR
# Protocol: Methylcellulose (0.5 g) was combined with 99.0 g of purified water in a beaker and stirred in a 60-70° C. water bath for 30′-1 hr. The solution was stirred in a 0° C. ice/water bath for another 30′ or until clear. Polysorbate 80 (0.5 g) was added and stirring at room temperature followed for 30′-1 hr or until a clear solution was obtained.
# The appropriate amount of Compound 2 HCl salt based on free base was weighed and transferred to a scintillation vial. The desired amount of 0.5% methylcellulose and 0.5% polysorbate 80 stock solution for making a 6 mg/mL based on free base (6.48 mg/mL based on HCl salt) was transferred into the vial and sonicated for 20 minutes with alternate stirring for 1-2 minutes. The solution was homogenized for approximately 1-2 minutes.
# [2] = Stability of Compound 2 aqueous suspension in 0.5% methylcellulose; conditions: room temperature; methylcellulose formulation
# Protocol: A 100 mL stock solution of 0.5% by weight methylcellulose was prepared by stirring 0.5 g of methylcellulose with 99.5 g of purified water until completely dissolved (approximately 24 hours). The appropriate amount of Compound 2 HCl salt based on free base was weighed and transferred to a scintillation vial. The desired amount of 0.5% methylcellulose stock solution for making a 6 mg/mL based on free base (6.48 mg/mL based on HCl salt) was transferred into the vial and sonicated for 20 minutes and homogenized for approximately 5 minutes.
# [3] = Solubility of Compound 3 in solvents
# [4] = 0.5% methylcellulose/0.5% polysorbate 80
smiles,measurement,setting,value
"Cc1ccc(NC(=O)C2(c3ccc4c(c3)OC(F)(F)O4)CC2)nc1-c1cccc(C(=O)O)c1 [Compound 2 Form I, 3-(6-(1-(2,2-difluorobenzo[d][1,3]dioxol-5-yl)cyclopropanecarboxamido)-3-methylpyridin-2-yl)benzoic acid]","chemically stable, no sign of chemical degradation","[1]; room temperature, 0.5% methylcellulose/0.5% polysorbate 80 formulation vehicle",at least 24 hrs
same,"physically and chemically stable, no sign of chemical degradation",[2],at least 24 hrs
"Cc1ccc(NC(=O)C2(c3ccc4c(c3)OC(F)(F)O4)CC2)nc1-c1cccc(C(=O)O)c1.Cl [Compound 2 HCl salt, 3-(6-(1-(2,2-Difluorobenzo [d][1,3]dioxol-5-yl)cyclopropanecarboxamido)-3-methylpyridin-2-yl)benzoic acid.HCl salt]",physical stability of suspension,[1]; [4],not physically stable
same,conversion of salt form in suspension vehicle,[1]; [4],quickly converted to Compound 2 Form I
same,conversion of salt form in suspension vehicle,"[1]; 0.5% methylcellulose/0.5% polysorbate 80, listed as HCl salt",quickly converted to Compound 2 Form I at T(0)
"CC(C)(CO)c1cc2cc(NC(=O)C3(c4ccc5c(c4)OC(F)(F)O5)CC3)c(F)cc2n1C[C@H](O)CO [Compound 3, (S)-1-(2,2-difluorobenzo[d][1,3]dioxol-5-yl)-N-(1-(2,3-dihydroxypropyl)-6-fluoro-2-(1-hydroxy-2-methylpropan-2-yl)-1H-indol-5-yl)cyclopropanecarboxamide]",solubility,"[3]; first solvent: ethyl acetate, ethanol, isopropyl alcohol, or acetone",greater than 20 mg/mL
same,solubility,"[3]; organic solvent or mixture, acetonitrile, methanol, ethanol, isopropyl alcohol, acetone, read-out: solubility",> 20 mg/mL
same,solubility,"[3]; second solvent: heptane or water, water, read-out: solubility (poor)",< 1 mg/mL
